From US6653342B2, “13-substituted milbemycin derivatives, their preparation and their use against insects and other pests” (Sankyo Company, Limited, priority 2000, dated 2003)
Several values for one entry are separate records, joined by “and”; a condition that tells them apart may be missing. Equal values may be shown once.

Columns and labels:
[1] = test system: hookworms (Ancylostoma caninum); assay: Test on effect against hookworms in naturally infected dogs (Test Example 5); type: in vivo; conditions: dogs naturally infected with hookworm, one line per dog
Protocol: (§1) For each of these three parasites, the number of eggs per gram (EPG) of dog faeces excreted was measured before, and 7 to 9 days after, administration of the test compound. The number of worms excreted in the faeces of the dog (WEF) between administration of the test compound and the end of the test was measured. Upon completion of the test, each of the test dogs was subjected to post mortem to count the number of surviving worms in the digestive tract (SWDT).

[2] = test system: Southern root-knot nematode; assay: Test on insecticidal effect against Southern root-knot nematode, cucumber on agar plate (Test Example 10); type: in vivo; conditions: 1000 ppm solution on filter paper disks
Protocol: An agar plate (80 ml: containing 1.25 ppm of kanamycin, 1.25 ppm of streptomycin and 0.8585 ppm of penicillin) was prepared in a container (70×70×20 mm). The plate was planted with a cucumber in the cotyledon stage of development. […] One of the thus-treated paper disks was put into the agar plate and two further treated paper disks were laid over the cotyledon.
After treatment, the container was covered with an acrylic plate to prevent water evaporation. Four days later, about 2.5 ml of a suspension containing 500 second-stage larvae of Southern root-knot nematode were added dropwise to the agar plate. Ten days after addition of the larvae, the number of galls of nematodes was estimated. Each test was conducted at a temperature of 25° C. and a humidity of 65%. “Untreated” in this test is a control in which water was used to soak the filter paper instead of the test compound solution.
The following criteria were used to judge the results obtained:
0: equal to the treatment-free group (51 to 150 galls)
1: slightly less than the treatment-free group (36 to 50 galls)
2: less than the treatment-free group (21 to 35 galls)
3: markedly less than the treatment-free group (0 to 20 galls)

[3] = test system: Perforating Scabies (Sarcoptes scabiei); assay: Test on effect against perforating scabies, naturally infected cat (Test Example 7); type: in vivo
Protocol: (§2) Dogs and cats naturally infected with scabies were provided for the test. […] This was administered at a rate of 5 mg/kg body weight to a test animal in its poll region. The epidermis was scraped off the test animal from its ears and limbs before administration and then three weeks after administration of the test compound. The epidermis thus obtained was then charged in a 10% potassium hydroxide solution and the number of worm bodies and eggs was observed microscopically.

[4] = test system: Perforating Scabies (Sarcoptes scabiei); assay: Test on effect against perforating scabies, naturally infected dog (Test Example 7); type: in vivo
Protocol: as §2

cat fleas [5] = assay: whole plant or invertebrate; type: in vivo; conditions: 1 ppm in bovine serum sucked through Parafilm at 37° C.; dead fleas after 48 hours; 20 fleas per group; corrected by control group
Protocol: A test container wherein the living space of fleas was isolated from bovine serum by use of Parafilm™ (obtainable from Aldrich Chemical Co. Ltd.), which is usually used as an artificial skin, was prepared. A compound to be tested was added to the bovine serum in an amount sufficient for its concentration to be 1 ppm, and the fleas were allowed to suck the serum sample through the Parafilm™ at 37° C. Each group consisted of 20 fleas. […] By counting the dead fleas in a control group without a test compound, the mortality was corrected.

[6] = test system: roundworms (Toxocara canis); assay: Test on effect against roundworms in naturally infected dogs (Test Example 4); type: in vivo; conditions: dogs naturally infected with roundworm, one line per dog
Protocol: as §1

[7] = test system: whipworms (Trichuris vulpis); assay: Test on effect against whipworms in naturally infected dogs (Test Example 6); type: in vivo; conditions: dogs naturally infected with whipworm, one line per dog
Protocol: as §1

cat fleas [8] = assay: Test on elimination of fleas from dogs (Test Examples 2 and 3); type: in vivo, Ctenocephalides felis; conditions: beagles
Protocol: Beagles provided for the test were infected with cat fleas prior to the commencement of the test. The number of fleas collected from the surface of the body of the dog three days after infection was counted and an infection ratio, calculated as the ratio of the fleas counted three days after infection to the initial number used to infect the dog, was determined for each dog.
The resulting test solution was administered dropwise to the interscapular region of each of four test beagles (4 to 7 months old) at a dose of 5 mg/kg body weight. On Day 7, Day 21 and Day 28 after administration of the test compound, each dog was infected with 100 cat fleas. The number of fleas collected from the surface of the bodies of the dogs three days after infection was counted. The number of fleas obtained before and after administration was determined to give an elimination ratio.
Thus, even 28 days after administration of the test compound, the elimination ratio was 100%.

microfilariae (mf) = assay: Test on activity against microfilariae in culture with or without neutrophils (Test Example 8); conditions: 37° C., 5% CO2, compared to broth containing mf only
[9] = 5 mg/kg dropwise to poll region
[10] = 5 mg/kg to poll region, epidermis scraped from ears and limbs, counted microscopically

`CCC1OC2(CCC1C)CC1CC(CC=C(C)C(OC(=O)C3(c4ccc(NC(=O)COC)cc4)CCCC3)C(C)C=CC=C3COC4C(O)C(C)=CC(C(=O)O1)C34O)O2` (stereo not drawn) [Example 1(c), 13-[1-(4-Methoxyacetylaminophenyl)cyclopentanecarbonyloxy]-5-hydroxy-milbemycin A4] was tested, and the “EPG after 7-9 Days” value [1, 9] was 0 eggs per gram, the “Elimination ratio (%)” value ([1]; 5 mg/kg dropwise) was 100% and the “SWDT (number of surviving worms in the digestive tract)” value (“SWDT” for short) ([1]; 5 mg/kg dropwise, post mortem) was 0. For the same molecule, the “Effect (result)” value ([2]; graded by number of galls ten days after addition of larvae) was 3 (markedly less than the treatment-free group (0 to 20 galls)), the Number of galls ([2]; ten days after addition of 500 second-stage larvae, 25° C., humidity 65%) was 6 and the “After administration (three weeks later) Egg” value [3, 10] was 0. The “After administration (three weeks later) Worm body” value [3, 10] was 0, the effects against scabies ([3]; 5 mg/kg, after three weeks) was 100% and the oviposition preventing effects ([3]; 5 mg/kg, after three weeks) was 100%. For the same molecule, the “After administration (three weeks later) Egg” value [4, 10] was 0, the “After administration (three weeks later) Worm body” value [4, 10] was 9 and the oviposition of scabies ([4]; 5 mg/kg, after three weeks) was “prevented completely”. For the same molecule, the “Mortality (%)” value (cat fleas [5]) was 90.2%, the “EPG after 7-9 Days” value ([6]; 5 mg/kg dropwise to poll region, eggs per gram of faeces) was 0 eggs per gram and the “WEF (number of worms excreted in the faeces)” value ([6]; 5 mg/kg dropwise, between administration and end of test, 5 mg/kg) was 3 and 5 and 8. For the same molecule, the “Elimination ratio (%)” value ([6]; 5 mg/kg dropwise) was 100%, the “SWDT” value ([6]; 5 mg/kg dropwise, post mortem) was 0 and the “EPG after 7-9 Days” value [7, 9] was 0 eggs per gram. The “Elimination ratio (%)” value ([7]; 5 mg/kg dropwise) was 100%, the “SWDT” value ([7]; 5 mg/kg dropwise, post mortem) was 0 and the elimination ratio (cat fleas [8]; 5 mg/kg body weight dropwise to interscapular region (10% w/v solution), infected with 100 cat fleas 28 days after administration, counted three days after infection) was 100%. For the same molecule, the “number of fleas collected from the surfaces of the bodies of the dogs three days after infection” value (cat fleas [8]; 5 mg/kg dropwise, infection with 100 cat fleas on each of Day 7, Day 21 and Day 28 after administration) was “no fleas were collected”, the “Percentage reduction of microfilariae” value (microfilariae (mf); mf + neutrophils + test compound (100 ng/ml)) was 53.8% and the “Percentage reduction of microfilariae” value (microfilariae (mf); mf + test compound (100 ng/ml), no neutrophils) was 0.02%.
